In patent US9796741B2 (Achillion Pharmaceuticals, Inc., priority 2014, dated 2017):
Where two headings read alike, the source gives them in different places.

Target: Human factor D (Homo sapiens (Human), UniProt P00746)
Test: Human Factor D Assay
Format: biochemical
Procedure: Human factor D (purified from human serum, Complement Technology, Inc.) at 80 nM final concentration is incubated with test compound at various concentrations for 5 minutes at room temperature in 50 mM Tris, 1M NaCl, pH 7.5. A synthetic substrate Z-L-Lys-SBzl and DTNB (Ellman's reagent) are added to final concentrations of 100 μM each. The increase in color is recorded at OD405 nm in a microplate in kinetic mode over 30 minutes with 30 second time points in a spectrofluorimeter. IC50 values are calculated by non-linear regression from the percentage of inhibition of complement factor D activity as a function of test compound concentration.

[1] = human factor D 80 nM, substrate Z-L-Lys-SBzl, DTNB

Chain of Human factor D (P00746 26-253): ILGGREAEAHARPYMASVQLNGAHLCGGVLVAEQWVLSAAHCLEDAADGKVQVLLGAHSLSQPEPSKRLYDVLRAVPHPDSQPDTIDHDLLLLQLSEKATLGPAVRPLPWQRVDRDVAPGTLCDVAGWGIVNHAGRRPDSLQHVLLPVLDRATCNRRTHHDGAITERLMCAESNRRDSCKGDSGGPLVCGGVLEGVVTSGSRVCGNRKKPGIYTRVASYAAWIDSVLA

Structure (SMILES)	IC50 [1] [µM]	IC50 [µM]
CC1Oc2cccc(NC(=O)[C@@H]3C[C@@H](F)CN3C(=O)Cn3nc(C(N)=O)c4cc(-c5ccnnc5)ccc43)c2NC1=O (stereo partly drawn) [Compound 152, 1-(2-((2S,4R)-4-fluoro-2-(2-methyl-3-oxo-3,4-dihydro-2H-benzo[b][1,4]oxazin-5-ylcarbamoyl)pyrrolidin-1-yl)-2-oxoethyl)-5-(pyridazin-4-yl)-1H-indazole-3-carboxamide]	> 10	–
NC(=O)c1nn(CC(=O)N2C[C@H](F)C[C@H]2C(=O)Nc2cccc(Br)n2)c2ccc(-c3cncnc3)cc12 [Compound 5, 1-(2-((2S,4R)-2-(6-bromopyridin-2-ylcarbamoyl)-4-fluoropyrrolidin-1-yl)-2-oxoethyl)-5-(pyrimidin-5-yl)-1H-indazole-3-carboxamide]	< 1	–
CC1(C)Cc2ccc(NC(=O)[C@@H]3C[C@@H](F)CN3C(=O)Cn3nc(C(N)=O)c4cc(-c5ccnnc5)ccc43)cc2O1 [Compound 76, 1-(2-((2S,4R)-2-(2,2-dimethyl-2,3-dihydrobenzofuran-6-ylcarbamoyl)-4-fluoropyrrolidin-1-yl)-2-oxoethyl)-5-(pyridazin-4-yl)-1H-indazole-3-carboxamide]	< 1	–
CC(=O)c1cn(CC(=O)N2C[C@H](F)C[C@H]2C(=O)Nc2cncc(Br)c2)c2ccc(-c3ccnnc3)cc12 [Compound 68, (2S,4R)-1-(2-(3-acetyl-5-(pyridazin-4-yl)-1H-indol-1-yl)acetyl)-N-(5-bromopyridin-3-yl)-4-fluoropyrrolidine-2-carboxamide]	< 1	–
NC(=O)c1nn(CC(=O)N2C[C@H](F)C[C@H]2C(=O)NC2CCCc3nc(-c4ccc(F)cc4)sc32)c2ccc(-c3ccnnc3)cc12 (stereo partly drawn) [Compound 107, 1-(2-((2S,4R)-4-fluoro-2-(2-(4-fluorophenyl)-4,5,6,7-tetrahydrobenzo[d]thiazol-7-ylcarbamoyl)pyrrolidin-1-yl)-2-oxoethyl)-5-(pyridazin-4-yl)-1H-indazole-3-carboxamide]	> 10	–
CC(=O)c1cn(CC(=O)N2C[C@H](F)C[C@H]2C(=O)Nc2cccc(Br)n2)c2ccc(-c3cccc(Cl)c3)cc12 [Compound 119, (2S,4R)-1-(2-(3-acetyl-5-(3-chlorophenyl)-1H-indol-1-yl)acetyl)-N-(6-bromopyridin-2-yl)-4-fluoropyrrolidine-2-carboxamide]	< 1	–
NC(=O)c1nn(CC(=O)N2C[C@H](F)C[C@H]2C(=O)NCc2ccccn2)c2ccc(-c3ccnnc3)cc12 [Compound 139, 1-(2-((2S,4R)-4-fluoro-2-(pyridin-2-ylmethylcarbamoyl)pyrrolidin-1-yl)-2-oxoethyl)-5-(pyridazin-4-yl)-1H-indazole-3-carboxamide]	–	1 to 10
Cn1ccc(N2CCC(NC(=O)[C@@H]3C[C@@H](F)CN3C(=O)Cn3nc(C(N)=O)c4cc(-c5ccnnc5)ccc43)C2=O)n1 (stereo partly drawn) [Compound 155, 1-(2-((2S,4R)-4-fluoro-2-(1-(1-methyl-1H-pyrazol-3-yl)-2-oxopyrrolidin-3-ylcarbamoyl)pyrrolidin-1-yl)-2-oxoethyl)-5-(pyridazin-4-yl)-1H-indazole-3-carboxamide]	> 10	–
NC(=O)c1nn(CC(=O)N2C[C@H](F)C[C@H]2C(=O)Nc2cccc(-c3ccccc3Cl)c2F)c2ccc(-c3cncnc3)cc12 [Compound 2]	< 1	–
CC(=O)c1cn(CC(=O)N2C[C@H](F)C[C@H]2C(=O)N[C@H]2CCCC[C@@H]2OCc2ccccc2)c2ccc(-c3ccnnc3)cc12 [Compound 74, (2S,4R)-1-(2-(3-acetyl-5-(pyridazin-4-yl)-1H-indol-1-yl)acetyl)-N-((1S,2S)-2-(benzyloxy)cyclohexyl)-4-fluoropyrrolidine-2-carboxamide]	> 10	–
NC(=O)c1nn(CC(=O)N2[C@@H]3C[C@@H]3C[C@H]2C(=O)Nc2cccc(-c3ccccc3Cl)c2F)c2ccc(-c3ccc(F)nc3)cc12 [Compound 13, 1-(2-((lR,3S,5R)-3-(2′-chloro-2-fluorobiphenyl-3-ylcarbamoyl)-2-azabicyclo[3.1.0]hexan-2-yl)-2-oxoethyl)-5-(6-fluoropyridin-3-yl)-1H-indazole-3-carboxamide]	< 1	–
Cc1cc(NC(=O)[C@@H]2C[C@@H](F)CN2C(=O)Cn2nc(C(N)=O)c3cc(-c4ccnnc4)ccc32)n(-c2ccccc2F)n1 [Compound 158, 1-(2-((2S,4R)-4-fluoro-2-(1-(2-fluorophenyl)-3-methyl-1H-pyrazol-5-ylcarbamoyl)pyrrolidin-1-yl)-2-oxoethyl)-5-(pyridazin-4-yl)-1H-indazole-3-carboxamide]	> 10	–
CC(=O)c1cn(CC(=O)N2C[C@H](F)C[C@H]2C(=O)Nc2nc(-c3ccc4c(c3)CCCC4)cs2)c2ccc(-c3ccnnc3)cc12 [Compound 54, (2S,4R)-1-(2-(3-acetyl-5-(pyridazin-4-yl)-1H-indol-1-yl)acetyl)-4-fluoro-N-(4-(5,6,7,8-tetrahydronaphthalen-2-yl)thiazol-2-yl)pyrrolidine-2-carboxamide]	> 10	–
CC(=O)c1cn(CC(=O)N2C[C@H](F)C[C@H]2C(=O)Nc2ccc3ccccc3c2)c2ccc(-c3ccnnc3)cc12 [Compound 110, (2S,4R)-1-(2-(3-acetyl-5-(pyridazin-4-yl)-1H-indol-1-yl)acetyl)-4-fluoro-N-(naphthalen-2-yl)pyrrolidine-2-carboxamide]	> 10	–
CC(=O)c1cn(CC(=O)N2C[C@H](F)C[C@H]2C(=O)NC2CCCc3nc(-c4ccc(F)cc4)sc32)c2ccc(-c3ccnnc3)cc12 (stereo partly drawn) [Compound 106, (2S,4R)-1-(2-(3-acetyl-5-(pyridazin-4-yl)-1H-indol-1-yl)acetyl)-4-fluoro-N-(2-(4-fluorophenyl)-4,5,6,7-tetrahydrobenzo[d]thiazol-7-yl) pyrrolidine-2-carboxamide]	> 10	–
NC(=O)c1nn(CC(=O)N2C[C@H](F)C[C@H]2C(=O)Nc2cccc(Cl)c2C(F)(F)F)c2ccc(-c3ccnnc3)cc12 [Compound 93, 1-(2-((2S,4R)-2-(3-chloro-2-(trifluoromethyl)phenylcarbamoyl)-4-fluoropyrrolidin-1-yl)-2-oxoethyl)-5-(pyridazin-4-yl)-1H-indazole-3-carboxamide]	> 10	–
CN1CC=C(c2ccc3c(c2)c(C(N)=O)nn3CC(=O)N2C[C@H](F)C[C@H]2C(=O)Nc2cccc(Br)n2)CC1 [Compound 22, 1-(2-((2S,4R)-2-(6-bromopyridin-2-ylcarbamoyl)-4-fluoropyrrolidin-1-yl)-2-oxoethyl)-5-(1-methyl-1,2,3,6-tetrahydropyridin-4-yl)-1H-indazole-3-carboxamide]	< 1	–
Cc1ccnn1-c1ccccc1NC(=O)[C@@H]1C[C@@H](F)CN1C(=O)Cn1nc(C(N)=O)c2cc(-c3ccnnc3)ccc21 [Compound 71, 1-(2-((2S,4R)-4-fluoro-2-(2-(5-methyl-1H-pyrazol-1-yl)phenylcarbamoyl)pyrrolidin-1-yl)-2-oxoethyl)-5-(pyridazin-4-yl)-1H-indazole-3-carboxamide]	> 10	–
COc1cc(C)cc2c1OCCC2NC(=O)[C@@H]1C[C@@H](F)CN1C(=O)Cn1cc(C(C)=O)c2cc(-c3ccnnc3)ccc21 (stereo partly drawn) [Compound 123, (2S,4R)-1-(2-(3-acetyl-5-(pyridazin-4-yl)-1H-indol-1-yl)acetyl)-4-fluoro-N-(8-methoxy-6-methylchroman-4-yl)pyrrolidine-2-carboxamide]	> 10	–
COc1ncc(-c2ccc3c(c2)c(C(C)=O)cn3CC(=O)N2C[C@H](F)C[C@H]2C(=O)Nc2cccc(Br)n2)cn1 [Compound 21, (2S,4R)-1-(2-(3-acetyl-5-(2-methoxypyrimidin-5-yl)-1H-indol-1-yl)acetyl)-N-(6-bromopyridin-2-yl)-4-fluoropyrrolidine-2-carboxamide]	< 1	–
NC(=O)c1nn(CC(=O)N2C[C@H](F)C[C@H]2C(=O)NCc2cc(F)cc(Cl)c2)c2ccc(-c3ccnnc3)cc12 [Compound 62, 1-(2-((2S,4R)-2-(3-chloro-5-fluorobenzylcarbamoyl)-4-fluoropyrrolidin-1-yl)-2-oxoethyl)-5-(pyridazin-4-yl)-1H-indazole-3-carboxamide]	< 1	–
NC(=O)c1nn(CC(=O)N2C[C@H](F)C[C@H]2C(=O)Nc2ncc(Br)cn2)c2ccc(-c3ccnnc3)cc12 [Compound 109, 1-(2-((2S,4R)-2-(5-bromopyrimidin-2-ylcarbamoyl)-4-fluoropyrrolidin-1-yl)-2-oxoethyl)-5-(pyridazin-4-yl)-1H-indazole-3-carboxamide]	–	1 to 10
CC(=O)c1cn(CC(=O)N2C[C@H](F)C[C@H]2C(=O)Nc2cccc(Cl)n2)c2ccc(-c3cnc(C)nc3)cc12 [Compound 137, (2S,4R)-1-(2-(3-acetyl-5-(2-methylpyrimidin-5-yl)-1H-indol-1-yl)acetyl)-N-(6-chloropyridin-2-yl)-4-fluoropyrrolidine-2-carboxamide]	< 1	–
CC(=O)c1cn(CC(=O)N2C[C@H](F)C[C@H]2C(=O)Nc2cccc(Br)n2)c2ccc(-c3cnc(F)nc3)cc12 [Compound 83, (2S,4R)-1-(2-(3-acetyl-5-(2-fluoropyrimidin-5-yl)-1H-indol-1-yl)acetyl)-N-(6-bromopyridin-2-yl)-4-fluoropyrrolidine-2-carboxamide]	< 1	–
NC(=O)c1nn(CC(=O)N2C[C@H](F)C[C@H]2C(=O)Nc2noc3cc(C(F)(F)F)ccc23)c2ccc(-c3ccnnc3)cc12 [Compound 112, 1-(2-((2S,4R)-4-fluoro-2-(6-(trifluoromethyl)benzo[d]isoxazol-3-ylcarbamoyl)pyrrolidin-1-yl)-2-oxoethyl)-5-(pyridazin-4-yl)-1H-indazole-3-carboxamide]	> 10	–
CC(=O)c1cn(CC(=O)N2C[C@H](F)C[C@H]2C(=O)Nc2cccc(Cl)c2-n2cncn2)c2ccc(-c3ccnnc3)cc12 [Compound 95, (2S,4R)-1-(2-(3-acetyl-5-(pyridazin-4-yl)-1H-indol-1-yl)acetyl)-N-(3-chloro-2-(1H-1,2,4-triazol-1-yl)phenyl)-4-fluoropyrrolidine-2-carboxamide]	> 10	–
